Read-outs that look alike come from different tables or passages of the source.
Assays:
TNFα trimer = TNFα trimer (Homo sapiens, UniProt P01375); assay: SPR binding kinetics of compounds to TNFα trimer; details: for Kd: class symbols; for koff: read-out: kd
Experimental: Streptavidin 100 μg/mL Streptavidin (Invitrogen Cat #: 434302) diluted in 10 mM sodium acetate, pH 4.5) was immobilized to both the reference and active surfaces as described in Example 51. The surfaces were conditioned with three injections of running Buffer (10 mM HEPES, 150 mMNaCl, 0.05% T20, pH 7.5, 2% DMSO) at a flow rate of 10 μL/min, Contact time: 60 s. Flow rate: 10 μL/min. The active surface was treated with biotinylated linked TNFα trimer 20 μg/mL diluted in running buffer at a flow rate of 5 μL/min contact time: 600 s, yielding a final response of ˜3000 RU. Example compounds were then serially diluted 1:1 in running buffer (10 mM HEPES, 150 mM NaCl, 0.05% T20, pH 7.5, 2% DMSO) from 30 uM to 937.5 nM and flowed over the active and reference surfaces from lowest concentration to greatest concentration in the single-cycle kinetics format, and then allowed to dissociate in running buffer for 7200 s, at 30 μL/min. Sensorgrams were solvent corrected, double-referenced, and the data fitted and analyzed in Biacore Insight Evaluation Software Version 3.0.11.15423.

THP-1 cells = assay: Compound mediated uptake of TNFα-pHrodo in THP-1 cells (flow cytometry); assay type: cell-based; set-up: key to Uptake in THP1 cells (run) 2 / Uptake in THP1 cells (run) 3 / Uptake in THP1 cells (run) 4: + = ΔMFI less than that of I-17; ++ = ΔMFI ≈ to that of I-17; +++ = ΔMFI greater than that of I-17; details: ΔMFI compared with I-17, uptake at 10 μM
Experimental: THP-1 cells, a monocytic leukemia cell line that endogenously express folate receptor beta, were used as a model system to measure example compound stimulated uptake of in-house produced TNFα conjugated to the pH sensitive fluorescent dye pHrodo green (ThermoFisher Scientific #P35369).
THP-1 cells were maintained in RPMI (Gibco #61870143) with 10% v/v FBS (VWR #89510-188) with 2 mM L-alanyl-L-glutamine dipeptide, 100 units/ml penicillin and 100 μg/ml streptomycin (Gibco #15140148). Cells were pelleted, resuspended in folate-free RPMI (Gibco #27016021) and seeded at 50,000 cells per well of a 96 well plate. Example compound was added to each well as a log 2 dilution series ranging from 20 μM to 125 nM final concentration. Cells were incubated for 24 hrs and washed/resuspended in phosphate buffered saline (pH 7.4) with 1% w/v BSA. Uptake was measured using a Novocyte Advanteon Flow Cytometer (Agilent Technologies) with the […] and FITC detection configuration.

FOLR2 = FOLR2 (Homo sapiens (Human), UniProt P14207); assay: SPR binding kinetics of compounds to folate receptor (FOLR2 immobilized on CM5 chip)
FOLR2, sequence (P14207 17-255): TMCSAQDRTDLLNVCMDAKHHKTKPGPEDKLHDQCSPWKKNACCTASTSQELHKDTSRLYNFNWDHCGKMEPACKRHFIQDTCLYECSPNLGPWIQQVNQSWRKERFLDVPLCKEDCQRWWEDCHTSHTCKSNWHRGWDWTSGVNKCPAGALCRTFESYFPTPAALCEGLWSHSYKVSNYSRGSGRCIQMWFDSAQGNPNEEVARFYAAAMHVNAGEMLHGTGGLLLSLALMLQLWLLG
Experimental: A Biacore 8K+ was used to measure the association and dissociation rates of example compounds to FOLR2 (Acro Biosystems, Cat: F02-H5223-100 μg). Briefly, FOLR2 was reconstituted according to the manufacture's instructions to 200 μg/mL. Both the active and reference surfaces of a Cytiva CM5 Series S Sensor Chip were activated with a 1:1 mixture of 400 mM EDC and 100 mM NHS for 420 s at 10 μL/min. 25 μg/mL FOLR2 diluted in Sodium Acetate pH 5.5 was injected on the active channel (Flow Cell 2) for 420 s at 10p/min. Both the reference and active surfaces were then capped with 1M ethanolamine, pH 8.5 for 420 s, achieving an immobilization level of ˜4200 RU. Example compounds were serially diluted 1:1 in running buffer (10 mM HEPES, 150 mM NaCl, 0.05% T20, pH 7.5, 2% DMSO) from 100 nM to 3.125 nM and flowed over the active and reference surfaces for 120 s, and then allowed to dissociate in running buffer for 600 s, at 30 uL/min. The FOLR2 immobilized active surface and the reference surface were regenerated with a 30 s pulse of Sodium Acetate pH 5.5 at 30 μL/min. Sensorgrams were solvent corrected, double-referenced, and the data fitted and analyzed in Biacore Insight Evaluation Software Version 3.0.11.15423.

TNFα trimer, sequence (P01375 77-233 limits assumed): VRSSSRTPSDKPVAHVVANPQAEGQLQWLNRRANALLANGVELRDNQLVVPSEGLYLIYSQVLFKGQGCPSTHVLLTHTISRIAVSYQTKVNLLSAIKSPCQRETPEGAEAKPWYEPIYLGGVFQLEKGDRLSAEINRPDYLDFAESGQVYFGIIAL

Question: How did the Kd (TNFα trimer) turn out when `Cc1nc2cc(F)c(-c3cnc(OCCCCCNC(=O)CC[C@H](NC(=O)c4ccc(NCc5cnc6nc(N)nc(O)c6n5)cc4)C(=O)O)nc3)nc2c(N[C@H](C)c2cc(C#N)ccc2F)c1Cl` [Compound I-13, N2-(4-(((2-amino-4-hydroxypteridin-6-yl)methyl)amino)benzoyl)-N5-(5-((5-(7-chloro-8-(((R)-1-(5-cyano-2-fluorophenyl)ethyl)amino)-3-fluoro-6-methyl-1,5-naphthyridin-2-yl)pyrimidin-2-yl)oxy)pentyl)-L-glutamine] was run?
Answer: < 100 nM

Question: What about the “Uptake in THP1 cells (run) 2” value (THP-1 cells) of the same molecule?
Answer: +

Question: What about the “Uptake in THP1 cells (run) 3” value (THP-1 cells) of the same molecule?
Answer: ++

Question: What about the “Uptake in THP1 cells (run) 4” value (THP-1 cells) of the same molecule?
Answer: ++

Question: How did the Kd (TNFα trimer) turn out when `Cc1nc2cc(F)c(-c3cnc(OCCCCCn4cc(COCCOCCNC(=O)CC[C@H](NC(=O)c5ccc(NCc6cnc7nc(N)nc(O)c7n6)cc5)C(=O)O)nn4)nc3)nc2c(N[C@H](C)c2cc(C#N)ccc2F)c1Cl` [Compound I-16, N2-(4-(((2-amino-4-hydroxypteridin-6-yl)methyl)amino)benzoyl)-N5-(2-(2-((1-(5-((5-(7-chloro-8-((I-1-(5-cyano-2-fluorophenyl)ethyl)amino)-3-fluoro-6-methyl-1,5-naphthyridin-2-yl)pyrimidin-2-yl)oxy)pentyl)-1H-1,2,3-triazol-4-yl)methoxy)ethoxy)ethyl)-L-glutamine] was run?
Answer: < 100 nM

Question: What about the koff (TNFα trimer) of the same molecule?
Answer: 5.81e-05 s⁻¹

Question: What about the Kd (FOLR2) of the same molecule?
Answer: 0.3 nM

Question: What about the “Uptake in THP1 cells (run) 2” value (THP-1 cells) of the same molecule?
Answer: +++

Question: And the “Uptake in THP1 cells (run) 3” value (THP-1 cells)?
Answer: +++

Question: And the “Uptake in THP1 cells (run) 4” value (THP-1 cells)?
Answer: ++

Question: What does the source list for `Cc1nc2cc(F)c(-c3cnc(OCCCCCn4cc(COCCOCCOCCOCCNC(=O)CC[C@H](NC(=O)c5ccc(NCc6cnc7nc(N)nc(O)c7n6)cc5)C(=O)O)nn4)nc3)nc2c(N[C@H](C)c2cc(C#N)ccc2F)c1Cl` [Compound I-17, (S)-18-(4-(((2-amino-4-hydroxypteridin-6-yl)methyl)amino)benzamido)-1-(1-(5-((5-(7-chloro-8-((I-1-(5-cyano-2-fluorophenyl)ethyl)amino)-3-fluoro-6-methyl-1,5-naphthyridin-2-yl)pyrimidin-2-yl)oxy)pentyl)-1H-1,2,3-triazol-4-yl)-15-oxo-2,5,8,11-tetraoxa-14-azanonadecan-19-oic acid]?
Answer: Kd (TNFα trimer): < 1000 nM; Uptake in THP1 cells (run) 2 (THP-1 cells): ++; Uptake in THP1 cells (run) 3 (THP-1 cells): ++; Uptake in THP1 cells (run) 4 (THP-1 cells): +++

Question: How did the Kd (TNFα trimer) turn out when `Cc1nc2ccc(-c3cnc(OCCOCCn4cc(COCCOCCOCCOCCNC(=O)CC[C@H](NC(=O)c5ccc(NCc6cnc7nc(N)nc(O)c7n6)cc5)C(=O)O)nn4)nc3)cc2n1Cc1ccccc1OC(F)F` [Compound I-24, (S)-18-(4-(((2-amino-4-hydroxypteridin-6-yl)methyl)amino)benzamido)-1-(1-(2-(2-((5-(1-(2-(difluoromethoxy)benzyl)-2-methyl-1H-benzo[d]imidazol-6-yl)pyrimidin-2-yl)oxy)ethoxy)ethyl)-1H-1,2,3-triazol-4-yl)-15-oxo-2,5,8,11-tetraoxa-14-azanonadecan-19-oic acid] was run?
Answer: < 5000 nM

Question: What about the Kd (FOLR2) of the same molecule?
Answer: 0.4 nM

Question: What about the “Uptake in THP1 cells (run) 3” value (THP-1 cells) of the same molecule?
Answer: +

Question: What about the “Uptake in THP1 cells (run) 4” value (THP-1 cells) of the same molecule?
Answer: +

Question: What does the source list for `Nc1nc(O)c2nc(CNc3ccc(C(=O)N[C@@H](CCC(=O)NCCOCCOCCOCCOCc4cn(CCCCCOc5ccc(-c6ccc7nc(COc8cccc(N9CCCC9=O)c8)n(Cc8ccccc8OC(F)F)c7c6)cn5)nn4)C(=O)O)cc3)cnc2n1` [Compound I-25, (S)-18-(4-(((2-amino-4-hydroxypteridin-6-yl)methyl)amino)benzamido)-1-(1-(5-((5-(1-(2-(difluoromethoxy)benzyl)-2-((3-(2-oxopyrrolidin-1-yl)phenoxy)methyl)-1H-benzo[d]imidazol-6-yl)pyridin-2-yl)oxy)pentyl)-1H-1,2,3-triazol-4-yl)-15-oxo-2,5,8,11-tetraoxa-14-azanonadecan-19-oic acid]?
Answer: koff (TNFα trimer; SPR single cycle kinetics, TNFalpha trimer immobilized): 3.65e-06 s⁻¹; Kd (TNFα trimer): < 100 nM; Kd (FOLR2): 0.5 nM; Uptake in THP1 cells (run) 2 (THP-1 cells): +; Uptake in THP1 cells (run) 3 (THP-1 cells): +++; Uptake in THP1 cells (run) 4 (THP-1 cells): ++

Question: `Cc1nc2ccc(-c3cnn(CCCCCCn4cc(COCCOCCOCCOCCNC(=O)CC[C@H](NC(=O)c5ccc(NCc6cnc7nc(N)nc(O)c7n6)cc5)C(=O)O)nn4)c3)cn2c1Cc1cc(Cl)ccc1Cl` [Compound I-26, (S)-18-(4-(((2-amino-4-hydroxypteridin-6-yl)methyl)amino)benzamido)-1-(1-(6-(4-(3-(2,5-dichlorobenzyl)-2-methylimidazo[1,2-a]pyridin-6-yl)-1H-pyrazol-1-yl)hexyl)-1H-1,2,3-triazol-4-yl)-15-oxo-2,5,8,11-tetraoxa-14-azanonadecan-19-oic acid] was tested. Which Kd (TNFα trimer) did it give?
Answer: < 5000 nM

Question: What about the Kd (FOLR2) of the same molecule?
Answer: 0.2 nM

Question: What about the “Uptake in THP1 cells (run) 2” value (THP-1 cells) of the same molecule?
Answer: +++

Question: And the “Uptake in THP1 cells (run) 3” value (THP-1 cells)?
Answer: +

Question: What about the “Uptake in THP1 cells (run) 4” value (THP-1 cells) of the same molecule?
Answer: +

From US20250127913A1, “BIFUNCTIONAL FOLATE RECEPTOR BINDING COMPOUNDS” (LYCIA THERAPEUTICS, INC., priority 2021, published 2025)
